The record followed here is PubChem BioAssay AID1996.

Values after ≈ are worked out from the molar mass of the structure shown. Some results are limits rather than exact numbers.

The conditions of this data set: buffer; pH 7.4; 200.0 µM.
As usually defined, the kinetic solubility is the concentration staying in solution when a stock, usually in DMSO, is diluted into the medium. In turn, `CC(Nc1c([N+](=O)[O-])c(=O)oc2ccccc12)c1ccccc1` (configuration not stated) yielded a kinetic solubility of 8.8 µg/mL (≈ 28.4 µM).

Take `Cl.Clc1ccc(CN2CCNCC2)cc1`: the kinetic solubility was 22.6 µg/mL.

Take `COc1ccc(C(O)Cn2ccsc2=NC(C)=O)cc1` (configuration not stated): the kinetic solubility stood at 41.3 µg/mL (≈ 141 µM).

As to `CNCc1c(OCc2ccc(F)cc2)ccc2ccccc12.Cl`, the kinetic solubility was more than 49.8 µg/mL.

As for `CCOC(=O)CCNCc1ccc(F)cc1.Cl`, the solubility (kinetic) is more than 39.3 µg/mL.

For the compound `CC(=O)Nc1ccccc1Oc1ccccc1`, the kinetic solubility was more than 34.1 µg/mL.

`Cc1cnc(C(=O)OCC(=O)Nc2cc(Cl)ccc2C#N)cn1` registered a solubility (kinetic) of more than 49.6 µg/mL.

Consider `Cc1ccc(C)c(CSCc2nc3ccccc3[nH]2)c1`, for which the kinetic solubility stood at 20.6 µg/mL (≈ 72.9 µM).

As for `O=C(O)c1cccc2c(/C=N/Nc3ccccn3)c[nH]c12`, the solubility (kinetic) was more than 42 µg/mL.

As to `Cc1nc2ccccc2c(=O)n1NC(=O)c1cccc(Cl)c1`, the solubility (kinetic) is more than 47.1 µg/mL.

In the case of `CCOc1cccc(CN2CCN(Cc3ccc(C)o3)C(CCO)C2)c1O` (configuration not stated), the kinetic solubility is more than 56.2 µg/mL.

For `O=c1ccnc(SCCc2ccccc2)[nH]1`, the solubility (kinetic) was more than 34.8 µg/mL.

Turning to `O=C(NC(=S)N1CCOCC1)c1ccc(F)cc1`, the solubility (kinetic) is more than 40.2 µg/mL.

For the compound `CCOc1ccccc1N1CC(C(=O)NC2CCCCCC2)CC1=O` (configuration not stated), the solubility (kinetic) came out at 45.7 µg/mL (≈ 133 µM).

For `Cl.c1ccc(SCCCCN2CCOCC2)cc1`, the kinetic solubility is 38.2 µg/mL.

On to `Cc1noc(C)c1COC(=O)CNC(=O)c1ccc(Cl)cc1`, for which the solubility (kinetic) is more than 48.4 µg/mL.

The compound `O=C(c1ccccc1)C1CCN(C(=O)c2c(F)cccc2F)CC1` showed a solubility (kinetic) of more than 49.4 µg/mL.

`COc1ccc(/C=C/C(=O)OCC(=O)Nc2ncc(Cl)cc2Cl)cc1`: the kinetic solubility came to 8.1 µg/mL (≈ 21.2 µM).

Turning to `O=C(O)c1cccc(N(CCO)CCO)c1`, the solubility (kinetic) is more than 33.8 µg/mL.

Consider `O=C(CSC(=S)N1CCCCC1)Nc1ncc2c(n1)CCCC2=O`, for which the solubility (kinetic) turned out to be 11.3 µg/mL (≈ 31 µM).

Turning to `Cc1onc(-c2c(Cl)cccc2Cl)c1C(=O)N=C(N)N1CCCC1`, the kinetic solubility amounted to 12 µg/mL (≈ 32.7 µM).

`Cc1ccc(NC(=O)CCCc2ccccc2)c([N+](=O)[O-])c1` gave a kinetic solubility of 4.5 µg/mL (≈ 15.1 µM).

As for `CN(C)CCNC(=S)Nc1ccc(F)c(F)c1F`, the solubility (kinetic) was more than 41.6 µg/mL.

In turn, `O=C(CN1C(=O)NC2(CCCC2)C1=O)NCCc1ccc(F)cc1` yielded a kinetic solubility of 44.4 µg/mL (≈ 133 µM).

In turn, `Cc1ccccc1NC(=O)N1CCN(C/C=C/c2ccccc2)CC1` gave a kinetic solubility of more than 50.3 µg/mL.

For `CCOc1ccc(NC(=O)NCCCCc2ccccc2)cc1`, the kinetic solubility came to 0.4 µg/mL (≈ 1.28 µM).

In turn, `CCC(=O)Nc1cc2c3c(c1)CCC(=O)N3CCC2` yielded a kinetic solubility of more than 38.7 µg/mL.

In turn, `CCc1ccc(S(=O)(=O)NCc2csc(C)n2)cc1` returned a kinetic solubility of more than 44.5 µg/mL.

Regarding `O=C(CCCc1nc(-c2ccccc2)no1)NC1CCCC1`, the solubility (kinetic) was more than 44.9 µg/mL.

Compound `O=C(NCCc1ccccc1)C1CC(=O)N(C2CCCC2)C1` (configuration not stated) came in with a kinetic solubility of more than 45.1 µg/mL.

`COc1ccc(CCNC(=O)c2ccccc2)cc1`: the kinetic solubility was more than 38.3 µg/mL.

In the case of `COC(=O)C(Cc1cccc(C)n1)(c1ccccc1)c1ccccc1`, the kinetic solubility was 14.2 µg/mL (≈ 42.8 µM).

`CN1CCN(C(=O)c2ccc(C(F)(F)F)cc2)CC1.Cl` displayed a kinetic solubility of more than 46.3 µg/mL.

For `COC(=O)c1cc(Br)c(N)cc1OC`, the solubility (kinetic) was more than 39 µg/mL.

Consider `O=C(O)CC1(CC(=O)Nc2ccc(Cl)cc2C(=O)c2ccccc2)CCCC1`, for which the kinetic solubility is more than 60 µg/mL.

In turn, `Cc1cc(C)nc(SCC(=O)c2ccc(F)cc2)n1` returned a kinetic solubility of 38.5 µg/mL (≈ 139 µM).

With `O=S(=O)(NCc1cccs1)c1ccc(Br)cc1`, the kinetic solubility is 11.6 µg/mL (≈ 34.9 µM).

With `CCC(C)[C@H](NC(=O)NCc1ccc(F)cc1)C(=O)O` (some centres not stated), the kinetic solubility was more than 42.3 µg/mL.

`O=C(NCC1CCCO1)c1ccc(F)c2ccccc12` (configuration not stated) gave a kinetic solubility of more than 41 µg/mL.

`COc1ccc(C(=O)NC(=S)N2CCOCC2)cc1[N+](=O)[O-]` returned a kinetic solubility of more than 48.8 µg/mL.

Turning to `O=C(c1cccs1)N1CCN(c2ccccc2)CC1`, the solubility (kinetic) is more than 40.9 µg/mL.

The compound `O=C(Nc1cccnc1)c1ccccc1-c1ccccc1` had a kinetic solubility of more than 41.1 µg/mL.

Compound `O=C(c1ncc[nH]1)c1ccccc1Cl` displayed a solubility (kinetic) of more than 31 µg/mL.

In the case of `O=S(=O)(Nc1ccccc1N1CCOCC1)c1cccs1`, the solubility (kinetic) came to 4.2 µg/mL (≈ 12.9 µM).

As to `Cc1cc(C(C)(C)C)cc(C)c1COC(=O)CN1C(=O)NC2(CCCC2)C1=O`, the kinetic solubility came to 13.3 µg/mL (≈ 34.4 µM).

`CN(C(=O)CN1CCN(c2ccccc2F)CC1)C1CCCc2ccccc21` (configuration not stated) showed a solubility (kinetic) of more than 57.2 µg/mL.

Turning to `S=C1NCN(C2CCCCC2)CN1c1ccccc1`, the solubility (kinetic) is more than 41.3 µg/mL.

`Cc1ccn2cc(-c3ccc(Br)cc3)nc2c1` registered a kinetic solubility of 1.2 µg/mL (≈ 4.18 µM).

In turn, `C/C=C/n1ccnc1CC(O)(c1ccccc1)c1ccc(C)cc1` (configuration not stated) came in with a solubility (kinetic) of 3.3 µg/mL (≈ 10.4 µM).

The compound `Cc1ccc(C(=O)OCC(=O)Nc2cc(C(C)(C)C)no2)c(C)c1` displayed a kinetic solubility of 3.1 µg/mL (≈ 9.38 µM).

Consider `CN(CC(=O)Nc1ccc(Cl)c(C(F)(F)F)c1)C(=O)COC(=O)C1CC2CCCC(C1)C2=O` (configuration not stated), for which the kinetic solubility is 59.2 µg/mL (≈ 121 µM).

As to `CC(C)c1ccccc1NC(=S)NCc1nc2ccccc2[nH]1`, the kinetic solubility is more than 48.7 µg/mL.
